Molecules are shown by their SMILES.

The series is described as follows: Permeation behaviour through excised rat skin in Franz type cell. It counts as in vitro ADME, Wistar rats. The settings on record: conclusion from comparison with estradiol. The procedure:
The materials used were as follows:
The excised abdominal rat skin was mounted on a Franz type cell (receiver volume: 3ml) with a water jacket connected to a water bath at 37° C. The patch was adhered to the stratum comeum side of the skin. The receiver compartment was filled with a mixture of PEG400 and water (1:3 by volume) and stirred with a star head magnetic bead driven by a constant speed motor. At predetermined times, 100 μl of sample was withdrawn from the receiver compartment, and the same volume of receptor solution was added to keep the volume constant. The drug concentration was analysed by HPLC.
For all adhesives, the amount of the drug which had permeated increased steadily with time.

In the case of `CC12CCC3C(C1CCC2=O)[C@@H](O)C[C@H]1C[C@@H](O)CCC31C` (stereo partly drawn) [7β-OH EPIA, 7β-hydroxy-epiandrosterone], the “skin permeability (in words)” value is “potential skin permeability”.
As for `C[C@]12CCC(=O)C=C1CC[C@@H]1[C@@H]2[C@@H](O)C[C@]2(C)C(=O)CC[C@@H]12` [HAD, 11β-hydroxy-4-androstene-3,17-dione], the “skin permeability (in words)” value is “potential skin permeability”.

The values above are taken from patent publication US20070231373A1, “Transdermal Steriod for Formulation” (HUNTER-FLEMING LIMITED, priority 2004, published 2007).
